Consider 2 molecules from patent publication US10350210B2, “EGFR and ALK dual inhibitor” (PRECEDO PHARMACEUTICALS CO., LTD, priority 2015, dated 2019).

One assay concerns BaF3-TEL-EGFR-T790M. Description: Cell growth (Cell Titer-Glo viability), BaF3-TEL-EGFR-T790M. The format is cell-based. The conditions noted are these: Mus musculus; BaF3-TEL-EGFR-T790M (EGFR T790M mutant kinase), 72 hrs. The gist of the method: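 Proliferation assay: IL-3-independent BaF3 lines stably expressing TEL-fused human kinase (retroviral MSCV-Puro), plus EGFR-mutant NSCLC lines (HCC827 del19, NCI-H3255 L858R). Read-out: CellTiter-Glo luminescence of viable cells.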
On the technique in general: Cellular ATP, detected with luciferase, serves as a proxy for viable cell number.

Assay [1] deals with EGFR protein (EGFR L858R, H3255). Description: Effect on signaling pathway in cells, H3255. The format is cell-based. The conditions noted are these: 4 h. From the text: In four cell lines (all purchased from ATCC) including non-small cell lung cancer cell line A549 (expressing wild-type EGFR gene), non-small cell lung cancer cell line H1975 (expressing EGFR L858R/T790M double mutant gene), non-small cell lung cancer cell line H3255 (expressing EGFR L858R mutant gene) and non-small cell lung cancer cell line PC-9 (expressing EGFR delE746_A750 mutant gene), the effect of Compound 1 on EGFR or other protein kinases related to signaling pathways of EGFR such as Stat3, AKT, ErK, eIF4E, 4EBP1, P70S6K was assessed by assaying a number of cellular biochemical and functional endpoints. […] The effect of Compound 1 on phosphorylation of Stat3Y705, AKT T308, AKT 5473, Erk T202/204, EGFR Y1068, P70S6K Thr389, eIF4E Ser209, Erk T202/204, 4EBP1 (Thr37/46) in these cell lines was assayed (FIGS. 1a to 1d).

For the next assay, the system named is PC-9. Kind of assay: Effect on cell cycle (PI staining, flow cytometer), PC-9. It counts as cell-based, human. The conditions noted are these: PC-9 (EGFR delE746_A750), 24 hours. From the text: In order to study which growth phase the cell was halted after administration of the drugs, five cell lines including non-small cell lung cancer cell line A549 (expressing wild-type EGFR gene), non-small cell lung cancer cell line H1975 (expressing EGFR L858R/T790M double mutant gene), non-small cell Lung cancer cell line PC-9 (expressing EGFR delE746_A750 mutant gene), non-small cell lung cancer cell line H3255 (expressing EGFR L858R mutant gene) and non-small cell lung cancer cell NCI-H3122 (expressing ALK gene) were tested for effect of Compound 1 on cell cycle distribution. Two cell lines including non-small cell lung cancer cell NCI-H3122 (expressing ALK gene) and non-small cell lung cancer cell H1975 (expressing EGFR L858R/T790M double mutant gene) were tested for effect of Compound 10 on cell cycle distribution. […]
For orientation: Flow cytometry measures light scatter and fluorescence of single cells or particles in a stream.

The subject of another assay is NCI-H3122. Kind of assay: Growth of cancer cells (Cell Titer-Glo viability), NCI-H3122. The format is cell-based. The conditions noted are these: Homo sapiens; NCI-H3122 (expressing ALK gene), 72 hrs; read-out: GI50.

Molecules are shown by their SMILES.

In general, GI50 refers to the concentration giving 50% growth inhibition. Molecule `C=CC(=O)Nc1cc(Nc2ncc(Cl)c(Nc3ccccc3S(=O)(=O)C(C)C)n2)c(OC)cc1N1CCN(CC)CC1` [Compound 1, N-(5-(5-chloro-4-(2-(isopropylsulfonyl)phenylamino)pyrimidin-2-ylamino)-2-(4-ethylpiperazin-1-yl)-4-methoxyphenyl)acrylamide] registered a GI50 in the assay on BaF3-TEL-EGFR-T790M of 32 nM. Further, in assay [1], the “concentration able to significantly inhibit the phosphorylation of EGFR protein (also affects AKT and ERK phosphorylation)” value worked out at 0.3 µM. For the same molecule, the “effect on cell cycle distribution” value in the assay on PC-9 is listed as “halt the cells in G0-G1 phase”.

For `C=CC(=O)Nc1cc(Nc2ncc(Cl)c(Nc3ccccc3S(=O)(=O)C(C)C)n2)c(OC)cc1N1CCCN(C)CC1` [Compound 10, N-(5-(5-chloro-4-(2-(isopropylsulfonyl)phenylamino)pyrimidin-2-ylamino)-4-methoxy-2-(4-methyl-1,4-homopiperazin-1-yl)phenyl)acrylamide], in the assay on NCI-H3122, the GI50 is less than 0.3 nM.
